Measurements published in PubChem BioAssay AID1963972 (Molecular Pharmacology Branch, DTP, NCI, 2024).

Tested on: 945468-187-T-J2-PDC spheroids viability
Experiment: Anticancer human tumor 945468-187-T-J2-PDC patient-derived rectal carcinoma cell line growth inhibition [PI3K]
Conditions: spheroids with HUVEC and MSC; for IC50: curve of first compound; for viability, T/C: stronger effect = lower value
Outline: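 Three cell types, namely tumor cells, endothelial cells and mesenchymal stem cells, formed each spheroid. Combinations with four PI3K inhibitors were screened at clinically achievable concentrations decreasing by half-log, and spheroid viability was recorded.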

[1] = second compound 0.00316 µM, first compound 0.0316 µM
[2] = second compound 0.00316 µM, first compound 0.1 µM
[3] = second compound 0.00316 µM, first compound 0.316 µM
[4] = second compound 0.00316 µM, first compound 1 µM
[5] = second compound 0.00316 µM, first compound 3.16 µM
[6] = second compound 0.00316 µM, first compound 10 µM
[7] = second compound 0.01 µM, first compound 0.0316 µM
[8] = second compound 0.01 µM, first compound 0.1 µM
[9] = second compound 0.01 µM, first compound 0.316 µM
[10] = second compound 0.01 µM, first compound 1 µM
[11] = second compound 0.01 µM, first compound 3.16 µM
[12] = second compound 0.01 µM, first compound 10 µM
[13] = second compound 0.0316 µM, first compound 0.0316 µM
[14] = second compound 0.0316 µM, first compound 0.1 µM
[15] = second compound 0.0316 µM, first compound 0.316 µM
[16] = second compound 0.0316 µM, first compound 1 µM
[17] = second compound 0.0316 µM, first compound 3.16 µM
[18] = second compound 0.0316 µM, first compound 10 µM
[19] = second compound 0.1 µM, first compound 0.0316 µM
[20] = second compound 0.1 µM, first compound 0.1 µM
[21] = second compound 0.1 µM, first compound 0.316 µM
[22] = second compound 0.1 µM, first compound 1 µM
[23] = second compound 0.1 µM, first compound 3.16 µM
[24] = second compound 0.1 µM, first compound 10 µM
[25] = second compound 0.316 µM, first compound 0.0316 µM
[26] = second compound 0.316 µM, first compound 0.1 µM
[27] = second compound 0.316 µM, first compound 0.316 µM
[28] = second compound 0.316 µM, first compound 1 µM
[29] = second compound 0.316 µM, first compound 3.16 µM
[30] = second compound 0.316 µM, first compound 10 µM
[31] = second compound 1 µM, first compound 0.0316 µM
[32] = second compound 1 µM, first compound 0.1 µM
[33] = second compound 1 µM, first compound 0.316 µM
[34] = second compound 1 µM, first compound 1 µM
[35] = second compound 1 µM, first compound 3.16 µM
[36] = second compound 1 µM, first compound 10 µM
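Also: spheroids exposed to compounds for seven days before reading.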

CC1(C)CCC(CN2CCN(c3ccc(C(=O)NS(=O)(=O)c4ccc(NCC5CCOCC5)c([N+](=O)[O-])c4)c(Oc4cnc5[nH]ccc5c4)c3)CC2)=C(c2ccc(Cl)cc2)C1 + COc1c(OCCCN2CCOCC2)ccc2c3n(c(=NC(=O)c4cnc(N)nc4)nc12)CCN3
IC50 (second compound 0.00316 µM): > 10 µM
IC50 (second compound 0.01 µM): > 10 µM
IC50 (second compound 0.0316 µM): > 10 µM
IC50 (second compound 0.1 µM): > 10 µM
IC50 (second compound 0.316 µM): < 0.0316 µM
IC50 (second compound 1 µM): < 0.0316 µM
viability, T/C [1]: 87.8%
viability, T/C [2]: 87.4%
viability, T/C [3]: 94.8%
viability, T/C [4]: 110%
viability, T/C [5]: 116%
viability, T/C [6]: 74.1%
viability, T/C [7]: 96.8%
viability, T/C [8]: 100%
viability, T/C [9]: 90.5%
viability, T/C [10]: 89.6%
viability, T/C [11]: 95.7%
viability, T/C [12]: 90.3%
viability, T/C [13]: 99.9%
viability, T/C [14]: 103%
viability, T/C [15]: 82.9%
viability, T/C [16]: 115%
viability, T/C [17]: 97%
viability, T/C [18]: 105%
viability, T/C [19]: 87.7%
viability, T/C [20]: 75%
viability, T/C [21]: 100%
viability, T/C [22]: 90.5%
viability, T/C [23]: 84.5%
viability, T/C [24]: 81.6%
viability, T/C [25]: 31.3%
viability, T/C [26]: 36.7%
viability, T/C [27]: 47.7%
viability, T/C [28]: 38.6%
viability, T/C [29]: 33%
viability, T/C [30]: 36.7%
viability, T/C [31]: 19.9%
viability, T/C [32]: 21.4%
viability, T/C [33]: 19.4%
viability, T/C [34]: 19.9%
viability, T/C [35]: 22.4%
viability, T/C [36]: 22.6%

C[C@@H](NC(=O)c1ncnc(N)c1Cl)c1ncc(C(=O)Nc2cc(C(F)(F)F)c(Cl)cn2)s1 + COc1c(OCCCN2CCOCC2)ccc2c3n(c(=NC(=O)c4cnc(N)nc4)nc12)CCN3
IC50 (second compound 0.00316 µM): > 10 µM
IC50 (second compound 0.01 µM): > 10 µM
IC50 (second compound 0.0316 µM): > 10 µM
IC50 (second compound 0.1 µM): > 10 µM
IC50 (second compound 0.316 µM): < 0.0316 µM
IC50 (second compound 1 µM): < 0.0316 µM
viability, T/C [1]: 109%
viability, T/C [2]: 115%
viability, T/C [3]: 116%
viability, T/C [4]: 113%
viability, T/C [5]: 99.3%
viability, T/C [6]: 102%
viability, T/C [7]: 133%
viability, T/C [8]: 119%
viability, T/C [9]: 126%
viability, T/C [10]: 119%
viability, T/C [11]: 112%
viability, T/C [12]: 125%
viability, T/C [13]: 108%
viability, T/C [14]: 94.6%
viability, T/C [15]: 111%
viability, T/C [16]: 142%
viability, T/C [17]: 96%
viability, T/C [18]: 122%
viability, T/C [19]: 94%
viability, T/C [20]: 102%
viability, T/C [21]: 94.9%
viability, T/C [22]: 95%
viability, T/C [23]: 92.7%
viability, T/C [24]: 92%
viability, T/C [25]: 46%
viability, T/C [26]: 49.3%
viability, T/C [27]: 50.9%
viability, T/C [28]: 57.7%
viability, T/C [29]: 53.5%
viability, T/C [30]: 63.9%
viability, T/C [31]: 24.4%
viability, T/C [32]: 26.1%
viability, T/C [33]: 25.6%
viability, T/C [34]: 22%
viability, T/C [35]: 23.5%
viability, T/C [36]: 26.8%
